Laboratory results reported in publication PMC4108065, “Inflammation and pancreatic cancer: molecular and functional interactions between S100A8, S100A9, NT-S100A8 and TGFβ1” (Cell Communication and Signaling : CCS, 2014).

Key:
[1] = test system: BxPC3 [Ca2+]i; assay: Intracellular calcium, fluo-4 epifluorescence, BxPC3; format: cell-based, human; details: for alterations in [Ca2+]i: BxPC3, single treatment, monitored for 500 seconds, 0.02 ng/ml TGFβ1, 10 nM S100A8, 10 nM S100A9
Experimental: BxPC3 and MiaPaCa2 cells, seeded (80 × 10^3 cells) on coverslips that had been inserted within each well of six well culture plates, were kept in their respective complete media for 24 hours. Coverslips were then incubated for 10 min at 37°C with 3 μM fluo-4 AM (Invitrogen S.R.L.) in an imaging buffer containing 137 mM NaCl, 5 mM KCl, 1.2 mM MgCl2, 0.44 mM KH2PO4, 4.2 mM NaHCO3, 5 mM glucose, and 20 mM HEPES pH 7.4. The cells were carefully washed with the imaging buffer after its removal. Calcium oscillations were then analyzed by means of an inverted epifluorescence microscope equipped with a top stage incubator (Tokai Hit INU-F1, Tokai Hit, Shizuoka-Ken, Japan) in order to keep cells in the optimal culturing environment. As an illumination source, we used a mercury arc discharge lamp and selected excitation and emission wavelengths with an FITC filter cube (EX 465–495 DM505 EM 515–555 nm). Use was made of an 60X1.45NA objective (Nikon Instruments S.P.A., Firenze, Italy) and, in order to minimize phototoxicity and photobleaching, a back-thinned electron multiplied CCD camera C9100-13 Imagem (Hamamatsu Photonics Italia S.R.L., Milano, Italy). After the first minute, required to achieve optimal culture conditions, intracellular fluorescence was continuously monitored (3 frames/sec) for 12 min. In all experiments, […], the cells were maintained in imaging buffer for the first 2 minutes, after which they were stimulated with 10 nM S100A8, 10 nM S100A9 and 50 nM NT-S100A8, alone or in combination with 0.02 ng/ml TGFβ1. For all stimuli, additions were made directly to the microscope chamber without interrupting the recording. The fluorescence signal was quantified by measuring the mean pixel value of a manually selected cellular area for each frame of the image stack using the HCimage system (Hamamatsu Photonics Italia S.R.L.). For all the experimental conditions, at least 3 independents sets of experiments were performed.

[2] = test system: Panc1; assay: XTT cell viability assay, Panc1; format: cell-based, human; details: 48 hours, TGFβ1 0.02 ng/ml, NT-S100A8 50 nM, S100A8 10 nM, S100A9 10 nM, alone or combined, at least three independent experiments in quadruplicate
Experimental: (§1) BxPC3, Capan1, MiaPaCa2, Panc1 and BxPC3-SMAD4+ cells were seeded (2000 cells per well) in 96-well cell culture plates and cultured in complete media for 24 hours. Media were then replaced with fresh cell culture media in absence (control) or in presence of TGFβ1 (0.02 ng/ml) and NT-S100A8 (50 nM), alone or combined or in absence (control) or in presence of TGFβ1 (0.02 ng/ml), S100A8 (10 nM) and S100A9 (10 nM) alone or combined. Cell growth was assessed after 48 hours using the XTT cell viability test (Roche, Milano, Italy). At least three independent experiements, each made in quadruplicate, were run. The results were expressed as percentage with respect to the median Abs450nm of control cells run in the same experimental set.

[3] = target: T1, TGFβ1 (Homo sapiens, UniProt P01137); assay: Molecular interactions by MALDI-TOF/MS and co-immunoprecipitation; format: binding; details: for co-immunoprecipitation with TGFβ1: 1.6 μM equimolar with CaCl2, 37°C overnight, IP anti-S100A8 or anti-S100A9, WB TGFβ1; for homo-oligomer formation: 11.3 μM with Ca2+; for homo-oligomer formation / hetero-dimer formation with TGFβ1: overnight, MALDI-TOF/MS; for hetero-dimer formation with TGFβ1: 1:1 molar ratio (11.3 μM) with Ca2+
T1 construct: purchased ProSpec-Tany TechnoGene
Experimental: Co-immunoprecipitation experiments were performed using protein G-Sepharose (GE Healthcare Technologies). TGFβ1 (1.6 μM) was incubated in equimolar concentrations with S100A8 or S100A9 at 37°C overnight in the presence of equimolar CaCl2. The mixtures were then incubated for 2 h with anti-S100A8 polyclonal or anti-S100A9 monoclonal antibodies (Santa Cruz Biotechnology) preadsorbed to protein G. Immunoprecipitates, washed three times in 10 mM Tris HCl containing 40 mM NaCl, pH 7.5, were boiled in an SDS-PAGE sample buffer before electrophoresis on 4–12% NuPAGE®NovexBis-Tris SDS–PAGE gels. After protein transfer, nitrocellulose membranes were blotted with anti-TGFβ1 antibody (Cell Signaling Technology).
S100A8, S100A9 and TGFβ1 and calcium ions (CaCl2) were mixed at an equimolar concentration (11.3 μM) in an aqueous solution. Each mixture was incubated overnight at 37°C prior to MALDI-TOF/MS analysis. S100A8, S100A9 and TGFβ1 mixtures were diluted 1/10 in 50 μL of 0.1% TFA aqueous solution, after which 5 microliters of each dilution were added to 5 μl of Sinapinic acid (SA); 1 μl of the resulting mixture was deposited in duplicate on the steel sample holder and allowed to dry. External mass calibration (Protein Calibration Standard II, BrukerDaltonics) was based on monoisotopic values of [M + H] + of Trypsinogen, Protein A, Albumin-Bovine (BSA), at m/z 23982, 44613, 66500, respectively. MALDI-TOF/MS measurements were performed using an Ultraflex II MALDI-TOF instrument (BrukerDaltonics), operating in linear positive ion mode. Ions were formed using a pulsed UV laser (λ = 337 nm) beam. The instrumental conditions were: IS1 = 25 kV; IS2 = 23.35 kV; delay time = 70 nsec. All chemicals and solvents were purchased from Sigma-Aldrich (Sigma Aldrich). One spectrum was collected for each sample, an average of 1,000 laser shots being obtained from the respective two replicate spots.

[4] = test system: MiaPaCa2; assay: XTT cell viability assay, MiaPaCa2; format: cell-based, human; details: 48 hours, TGFβ1 0.02 ng/ml, NT-S100A8 50 nM, S100A8 10 nM, S100A9 10 nM, alone or combined, at least three independent experiments in quadruplicate
Experimental: as §1

[5] = test system: Capan1; assay: XTT cell viability assay, Capan1; format: cell-based, human; details: 48 hours, TGFβ1 0.02 ng/ml, NT-S100A8 50 nM, S100A8 10 nM, S100A9 10 nM, alone or combined, at least three independent experiments in quadruplicate
Experimental: as §1

T1 sequence (P01137 279-390 limits assumed): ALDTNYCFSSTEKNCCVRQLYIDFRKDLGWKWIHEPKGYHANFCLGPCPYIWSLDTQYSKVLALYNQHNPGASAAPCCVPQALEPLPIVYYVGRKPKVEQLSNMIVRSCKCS

Substance | effect of TGFβ1 on the induced [Ca2+]i oscillations ([1]; BxPC3, combination with 0.02 ng/ml TGFβ1) | Panc1 % to Control Mean± SEM [2] | co-immunoprecipitation with TGFβ1 [3] | homo-oligomer formation [3] | hetero-dimer formation with TGFβ1 [3] | MiaPaCa2 % to Control Mean± SEM [4] | Capan1 % to Control Mean± SEM [5] | alterations in [Ca2+]i [1]
NT-S100A8: 14 N-terminal aminoacid peptide of S100A8, isolated from PDAC tissues (MLTELEKALNSIID; UniProt P05109 1-14, looked up, fragment) | synergized and accelerated by TGFβ1 |  |  |  |  |  |  | 
S100A8: inflammatory calcium binding protein S100A8 (ProSpec-Tany TechnoGene) |  | 93.16 ± 3.65 % to Control | TGFβ1 was detected | formed homo-dimers | formed hetero-dimers not only between themselves, but also with TGFβ1 | 102.13± 4.93 % to Control | 96.22 ± 2.91 % to Control | did not determine evident alterations in [Ca^2+]i
S100A9: inflammatory calcium binding protein S100A9, S100A8 binding partner |  | 96.72± 4.43 % to Control | TGFβ1 was detected | formed homo-dimers and homo-trimers | formed hetero-dimers not only between themselves, but also with TGFβ1 | 104.38± 4.09 % to Control | 103.07 ± 2.90 % to Control | did not determine evident alterations in [Ca^2+]i
TGFβ1: transforming growth factor beta 1 (ProSpec-Tany TechnoGene) |  | 88.31 ± 3.68 % to Control |  | formed homo-dimers and homo-trimers |  | 102.11 ± 4.65 % to Control | 104.31 ± 2.68 % to Control | did not determine evident alterations in [Ca^2+]i
